Experimental data taken from patent US20070043076A1, “Substituted 2-arylmethylene-n-aryl-n'aryl-malonamides and analogs as activators of caspases and inducers of apoptosis” (priority 2003, published 2007).

What was measured:
ZR-75-1 = assay: Caspase cascade activation (Ac-DEVD-R110 fluorogenic substrate) in ZR-75-1 cells; format: cell-based, Human; settings: 24 h incubation; for Caspase Activity Ratio: ratio of net RFU to that of control samples; for EC50: Homo sapiens, 0.16 to 10 μM final, read-out: Caspase potency EC50
Procedure: (§1) Human breast cancer cell lines T-47D and ZR-75-1 were grown according to media component mixtures designated by American Type Culture Collection +10% FCS (Invitrogen Corporation), in a 5% CO2-95% humidity incubator at 37° C. T-47D and ZR-75-1 cells were maintained at a cell density between 30 and 80% confluency and for HL-60 at a cell density of 0.1 to 0.6×10^6 cells/mL. Cells were harvested at 600×g and resuspended at 0.65×10^6 cells/mL into appropriate media +10% FCS. An aliquot of 45 μL of cells was added to a well of a 96-well microtiter plate containing 5 μL of a 10% DMSO in RPMI-1640 media solution containing 1.6 to 100 μM of N,N′-bis-(3-trifluoromethyl-phenyl)-2-(4-isopropyl-benzylidene)-malonamide or other test compound (0.16 to 10 μM final). An aliquot of 45 μL of cells was added to a well of a 96-well microtiter plate containing 5 μL of a 10% DMSO in RPMI-1640 media solution without test compound as the control sample. The samples were mixed by agitation and then incubated at 37° C. for 24 h in a 5% CO2-95% humidity incubator. After incubation, the samples were removed from the incubator and […] of a solution containing 20 μM of N-(Ac-DEVD)-N′-ethoxycarbonyl-R110 fluorogenic substrate (SEQ ID NO:1) (Cytovia, Inc.; U.S. Pat. No. 6,335,429), 20% sucrose (Sigma), 20 mM DTT (Sigma), 200 mM NaCl (Sigma), 40 mM Na PIPES buffer pH 7.2 (Sigma), and 500 μg/mL lysolecithin (Calbiochem) was added. The samples were mixed by agitation and incubated at room temperature. Using a fluorescent plate reader (Model 1420 Wallac Instruments), an initial reading (T=0) was made approximately 1-2 min after addition of the substrate solution, employing excitation at 485 nm and emission at 530 nm, to determine the background fluorescence of the control sample. After approximately 3 h of incubation, the samples were read for fluorescence as above (T=3 h).
(§2) The relative Fluorescence Unit values (RFU) were used to calculate the sample readings as follows: RFU(T=3h)−Control RFU(T=0)=Net RFU(T=3h)
(§3) The activity of caspase cascade activation was determined by the ratio of the net RFU value for N,N′-bis-(3-trifluoromethyl-phenyl)-2-(4-isopropyl-benzylidene)-malonamide to that of control samples. The EC50 (nM) was determined by a sigmoidal dose-response calculation (Prism 2.0, GraphPad Software Inc.).

Jurkat cells = assay: Drug induced apoptosis in Jurkat cells (propidium iodide flow cytometry); format: cell-based; settings: 24 h
Procedure: FIGS. 1A-C are graphs showing drug induced apoptosis in Jurkat cells. FIG. 1A: control cells (DMSO treated) showing most of the cells in G1 (M2). FIG. 1B: cells treated with 0.5 μM of N,N′-bis-(3-trifluoromethyl-phenyl)-2-(4-isopropyl-benzylidene)-malonamide for 24 h showing 50% of the cells in M1 (subdiploid apoptotic cells). FIG. 1C: cells treated with 1 μM of N,N′-bis-(3-trifluoromethyl-phenyl)-2-(4-isopropyl-benzylidene)-malonamide for 24 h showing 77% of the cells in M1 (subdiploid apoptotic cells).
(§4) Jurkat cells were incubated with N,N′-bis-(3-trifluoromethyl-phenyl)-2-(4-isopropyl-benzylidene)-malonamide (0.5 μM and 1 μM) for 24 h under normal growth conditions; control cultures were treated with DMSO vehicle. Cells were harvested at 1200 rpm and washed twice with 5 mM EDTA/PBS. Cells were then resuspended in 300 μl EDTA/PBS and […] of 100% ethanol, vortexed and incubated at room temperature for 1 h. Samples were spun down at 12000 rpm for 5 min and the supernatant was removed. A solution containing 100 μg/ml of propidium iodide and 1 mg/ml of RNAse A (fresh) was added to the samples and incubated for 1 h at room temperature. Samples were then transferred to 12×75 mm polystyrene tubes and analysed on a flow cytometer. All flow cytometry analyses were performed on FACScalibur (Becton Dickinson) using Cell Quest analysis software.

T47D cells = assay: Drug induced apoptosis in T47D cells (propidium iodide flow cytometry); format: cell-based, Human; settings: 1.7 μM, 24 h
Procedure: FIGS. 2A-B are graphs showing drug induced apoptosis in T47D cells. FIG. 2A: control cells (DMSO treated) showing most of the cells in G1 (M2). FIG. 2B: cells treated with 1.7 μM of N,N′-bis-(3-trifluoromethyl-phenyl)-2-(4-isopropyl-benzylidene)-malonamide for 24 h showing 88% of the cells in M1 (subdiploid apoptotic cells).
as §4
T47D breast cancer cell line was maintained and harvested as described in Example 105. […] Cells were harvested and treated with propidium iodide and analysed on a flow cytometer as described in Example 107.

T-47D [1] = assay: Inhibition of cell proliferation (GI50, CellTiter 96 AQueous One) in T-47D cells; format: cell-based; settings: Homo sapiens, T47D, 48 h incubation, read-out: GI50 (dose for 50% inhibition of cell proliferation)
Procedure: (§5) T-47D and DLD-1 cells were grown and harvested as in Example 105. An aliquot of 90 μL of cells (2.2×10^4 cells/mL) was added to a well of a 96-well microtiter plate containing 10 μl of a 10% DMSO in RPMI-1640 media solution containing 1 nM to 100 μM of N,N′-bis-(3-trifluoromethyl-phenyl)-2-(4-isopropyl-benzylidene)-malonamide (0.1 nM to 10 μM final). An aliquot of 90 μL of cells was added to a well of a 96-well microtiter plate containing 10 μL of a 10% DMSO in RPMI-1640 media solution without compound as the control sample for maximal cell proliferation (AMax). The samples were mixed by agitation and then incubated at 37° C. for 48 h in a 5% CO2-95% humidity incubator. After incubation, the samples were removed from the incubator and 20 μL of CellTiter 96 AQUEOUS One Solution Cell Proliferation™ reagent (Promega) was added. The samples were mixed by agitation and incubated at 37° C. for 2-4 h in a 5% CO2-95% humidity incubator. Using an absorbance plate reader (Model 1420 Wallac Instruments), an initial reading (T=0) was made approximately 1-2 min after addition of the solution, employing absorbance at 490 nm. This determines the possible background absorbance of the test compounds. No absorbance for N,N′-bis-(3-trifluoromethyl-phenyl)-2-(4-isopropyl-benzylidene)-malonamide was found at 490 nm. After the 2-4 h incubation, the samples were read for absorbance as above (ATest).
(§6) Baseline for GI50 (dose for 50% inhibition of cell proliferation) of initial cell numbers were determined by adding an aliquot of 90 μL of cells or 90 μL of media, respectively, to wells of a 96-well microtiter plate containing 10 μL of a 10% DMSO in RPMI-1640 media solution. The samples were mixed by agitation and then incubated at 37° C. for 0.5 h in a 5% CO2-95% humidity incubator. After incubation, the samples were removed from the incubator and 20 μL of CellTiter 96 AQUEOUS One Solution Cell Proliferation™ reagent (Promega) was added. The samples were mixed by agitation and incubated at 37° C. for 2-4 h in a 5% CO2-95% humidity incubator. Absorbance was read as above, (AStart) defining absorbance for initial cell number used as baseline in GI50 determinations.
(§7) GI50 (dose for 50% inhibition of cell proliferation) is the concentration where [(ATest−AStart)/(AMax−AStart)]=0.5.

T-47D [2] = assay: Caspase cascade activation (Ac-DEVD-R110 fluorogenic substrate) in T-47D cells; format: cell-based, Human; settings: 24 h incubation; for Caspase Activity Ratio: ratio of net RFU to that of control samples; for EC50: Homo sapiens, T47D, 0.16 to 10 μM final, read-out: Caspase potency EC50
Procedure: as §1, §2, §3

DLD-1 = assay: Inhibition of cell proliferation (GI50, CellTiter 96 AQueous One) in DLD-1 cells; format: cell-based; settings: Homo sapiens, 48 h incubation, read-out: GI50 (dose for 50% inhibition of cell proliferation)
Procedure: as §5, §6, §7

Compound | Caspase Activity Ratio (ZR-75-1) | EC50 (ZR-75-1) [nM] | induction of apoptosis (in words) (Jurkat cells; 0.5 μM and 1 μM) | cells in M1 (subdiploid apoptotic cells) (Jurkat cells; 0.5 μM) [%] | cells in M1 (subdiploid apoptotic cells) (Jurkat cells; 1 μM) [%] | cells in M1 (subdiploid apoptotic cells) (T47D cells) [%] | induction of apoptosis (in words) (T47D cells) | GI50 (T-47D [1]) [nM] | Caspase Activity Ratio (T-47D [2]) | EC50 (T-47D [2]) [nM] | GI50 (DLD-1) [nM]
CC(C)c1ccc(C=C(C(=O)Nc2cccc(C(F)(F)F)c2)C(=O)Nc2cccc(C(F)(F)F)c2)cc1 [Example 3, N,N′-Bis-(3-trifluoromethyl-phenyl)-2-(4-isopropyl-benzylidene)-malonamide] | 17 | 1400 | induces massive apoptosis | 50 | 77 | 88 | induces massive apoptosis | 180 | 15 | 867 | 200
O=C(Nc1cccc(C(F)(F)F)c1)C(=Cc1ccccc1)C(=O)Nc1cccc(C(F)(F)F)c1 [Example 15, N,N′-Bis-(3-trifluoromethyl-phenyl)-2-benzylidene-malonamide] | 6 | 2790 | – | – | – | – | – | 46 | 16 | 1380 | 1340
